According to BindingDB's records for doi:10.1016/j.bmcl.2009.01.012 (Pfizer, 2009):

Test: Antagonist activity at human recombinant CCR5 expressed in human HeLa-P4 cells assessed as inhibition of human HeLa-P4 cells binding to HIV1 gp160 expressing CHO cells by cell-cell fusion assay

Row | SMILES | IC50 [nM]
1 | Cc1ccnc(C)c1C(=O)NCCN1CCCC(CC(c2ccccc2)c2ccccc2)C1 (racemic) [rac-N-(2-(3-(2,2-diphenylethyl)piperidin-1-yl)ethyl)-2,4-dimethylnicotinamide] | 56
2 | Cc1ccnc(C)c1C(=O)N1CC(N(C)C2CCN(C(c3ccccc3)c3ccccc3)CC2)C1 [(3-((1-benzhydrylpiperidin-4-yl)(methyl)amino)azetidin-1-yl)(2,4-dimethylpyridin-3-yl)methanone] | 102
3 | Cc1ccnc(C)c1C(=O)N1CCC(N2C3CCC2CN(C(c2ccccc2)c2ccccc2)C3)CC1 [(4-(3-benzhydryl-3,8-diazabicyclo[3.2.1]octan-8-yl)piperidin-1-yl)(2,4-dimethylpyridin-3-yl)methanone] | 41
4 | Cc1ccnc(C)c1C(=O)N1CCC(N2CC3CCC(C2)N3C(c2ccccc2)c2ccccc2)CC1 [(4-(8-benzhydryl-3,8-diazabicyclo[3.2.1]octan-3-yl)piperidin-1-yl)(2,4-dimethylpyridin-3-yl)methanone] | 313
5 | Cc1cccc(C)c1C(=O)N1CCC(N2CC[C@H](N(Cc3ccccc3)C(=O)C3CC3)C2)CC1 [(S)-N-benzyl-N-(1-(1-(2,6-dimethylbenzoyl)piperidin-4-yl)pyrrolidin-3-yl)cyclopropanecarboxamide] | 1230
6 | CC(=O)NC(c1ccccc1)C1CN(C2CCN(C(=O)c3c(C)cccc3C)CC2)C1 (stereo not drawn) [N-((1-(1-(2,6-dimethylbenzoyl)piperidin-4-yl)azetidin-3-yl)(phenyl)methyl)acetamide] | 2490
7 | Cc1cccc(C)c1C(=O)N1CCC(N2CCC(CNC(=O)C3CC3)(Cc3ccccc3)CC2)CC1 [N-((4-benzyl-1'-(2,6-dimethylbenzoyl)-1,4'-bipiperidin-4-yl)methyl)cyclopropanecarboxamide] | 145
8 | Cc1cccc(C)c1C(=O)N1CCC(N2CC(N(Cc3ccccc3)C(=O)C3CC3)C2)CC1 [N-benzyl-N-(1-(1-(2,6-dimethylbenzoyl)piperidin-4-yl)azetidin-3-yl)cyclopropanecarboxamide] | 5800

Now those with a lower IC50, led by results:

Row | IC50 [nM] | SMILES
9 | 24 | Cc1ccnc(C)c1C(=O)N1CCC(N(C)C2CN(C(c3ccccc3)c3ccccc3)C2)CC1 [(4-((1-benzhydrylazetidin-3-yl)(methyl)amino)piperidin-1-yl)(2,4-dimethylpyridin-3-yl)methanone]
10 | 1 | Cc1cccc(C)c1C(=O)N1CCC(N2CC[C@@H](N(Cc3ccccc3)C(=O)C3CC3)C2)CC1 [(R)-N-benzyl-N-(1-(1-(2,6-dimethylbenzoyl)piperidin-4-yl)pyrrolidin-3-yl)cyclopropanecarboxamide]
11 | 3 | Cc1cccc(C)c1C(=O)N1CCC(N2CCC(N(Cc3ccccc3)C(=O)C3CCC3)CC2)CC1 [N-benzyl-N-(1'-(2,6-dimethylbenzoyl)-1,4'-bipiperidin-4-yl)cyclobutanecarboxamide]
12 | 0.5 | Cc1cccc(C)c1C(=O)N1CCC(C)(N2CCC(N(Cc3ccccc3)C(=O)C3CC3)CC2)CC1 [N-benzyl-N-(1'-(2,6-dimethylbenzoyl)-4'-methyl-1,4'-bipiperidin-4-yl)cyclopropanecarboxamide]
13 | 1 | Cc1cccc(C)c1C(=O)N1[C@@H]2CC[C@H]1C[C@H](N1CC[C@@H](N(Cc3ccccc3)C(=O)C3CC3)C1)C2 [exo-N-benzyl-N-((R)-1-(8-(2,6-dimethylbenzoyl)-8-azabicyclo[3.2.1]octan-3-yl)pyrrolidin-3-yl)cyclopropanecarboxamide]
